Structures are written as SMILES.

In general, IC50 refers to the concentration that inhibits the measured activity by half. Read a low IC50 as inhibition by little substance.

In the experiment the target is NTR1 (Homo sapiens, UniProt P30989). The experiment is described as follows: In vitro competitive binding on HT-29 cells against 177Lu-N1.
Sequence of NTR1 (P30989 whole entry): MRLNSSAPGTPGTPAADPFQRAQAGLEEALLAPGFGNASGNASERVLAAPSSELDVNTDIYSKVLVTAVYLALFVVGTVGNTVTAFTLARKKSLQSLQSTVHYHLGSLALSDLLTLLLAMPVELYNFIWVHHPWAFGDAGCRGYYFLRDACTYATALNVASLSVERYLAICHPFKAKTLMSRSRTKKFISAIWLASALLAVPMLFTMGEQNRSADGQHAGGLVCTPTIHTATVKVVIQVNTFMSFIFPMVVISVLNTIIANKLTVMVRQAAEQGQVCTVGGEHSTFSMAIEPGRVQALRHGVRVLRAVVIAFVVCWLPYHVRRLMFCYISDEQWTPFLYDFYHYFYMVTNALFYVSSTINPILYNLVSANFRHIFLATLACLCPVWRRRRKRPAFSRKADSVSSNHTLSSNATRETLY

For the compound `Cc1cc(O)cc(C)c1C[C@H](NC(=O)[C@@H]1CCCN1C(=O)[C@H](CCCNC(=N)N)NC(=O)[C@H](CCCNC(=N)N)N(C)C(=O)[C@@H]1CCCN1C(=O)[C@H](CCCCN)NC(=O)CN1CCN(CC(=O)O)CCN(CC(=O)O)CCN(CC(=O)O)CC1)C(=O)N[C@H](C(=O)N[C@@H](CC(C)C)C(=O)O)C(C)(C)C` [N0, DOTA-Lys-Pro-(N-Me)Arg-Arg-Pro-Dmt-Tle-Leu-OH], the IC50 worked out at 52.3 ± 1.5 nM.

In the case of `Cc1cc(O)cc(C)c1C[C@H](NC(=O)[C@@H]1CCCN1C(=O)[C@H](CCCNC(=N)N)NC(=O)[C@H](CCCNC(=N)N)N(C)C(=O)[C@@H]1CCCN1C(=O)[C@H](CCCCN)NC(=O)CCNC(=O)CN1CCN(CC(=O)O)CCN(CC(=O)O)CCN(CC(=O)O)CC1)C(=O)N[C@H](C(=O)N[C@@H](CC(C)C)C(=O)O)C(C)(C)C` [N1, DOTA-β-Ala-Lys-Pro-(N-Me)Arg-Arg-Pro-Dmt-Tle-Leu-OH], the IC50 was determined as 27.6 ± 1.3 nM.

For the origin of these results see publication PMC4593760 (Nuclear medicine and biology, 2015).
